# Results from patent US7754919B2, “Non-nucleoside reverse transcriptase inhibitors” (Roche Palo Alto LLC, priority 2005, dated 2010).
row,SMILES,melting point [°C]
1,CS(=O)(=O)CCNC(=O)c1ccc(NC(=O)Cc2ccc(Br)c(Oc3cc(Cl)cc(C#N)c3)c2F)c(Cl)c1,235.5
2,CC1(NC(=O)c2ccc(NC(=O)Cc3ccc(Br)c(Oc4cc(Cl)cc(C#N)c4)c3F)c(Cl)c2)CCNCC1.O=C(O)C(F)(F)F,130.5
3,CCN1CCCC1CNC(=O)c1ccc(NC(=O)Cc2ccc(Br)c(Oc3cc(Cl)cc(C#N)c3)c2F)c(Cl)c1 (stereo not shown),212
4,Cc1cc(C(=O)NCCN2CCOCC2)ccc1NC(=O)Cc1ccc(Br)c(Oc2cc(Cl)cc(C#N)c2)c1F,219.8 to 222
5,Cc1cc(C(=O)NCCN2CCCC2)ccc1NC(=O)Cc1ccc(Br)c(Oc2cc(C#N)cc(C(F)F)c2)c1F,202.4 to 203.7
6,Cc1cc(C(=O)NC[C@@H](C)O)ccc1NC(=O)Cc1ccc(Br)c(Oc2cc(C#N)cc(C(F)F)c2)c1F,225.5 to 228.8
7,Cc1cc(C(=O)NCCN(C)C)ccc1NC(=O)Cc1ccc(Cl)c(Oc2cc(Cl)cc(C#N)c2)c1F,213.3 to 216
8,N#Cc1cc(Cl)cc(Oc2c(Br)ccc(CC(=O)Nc3ccc(C(=O)N[C@@H]4CS(=O)(=O)C[C@H]4O)cc3Cl)c2F)c1,245
9,Cc1cc(C(=O)NCCN(C)C)ccc1NC(=O)Cc1ccc(Br)c(Oc2cc(C#N)cc(C(F)F)c2)c1F,205.6 to 206.6
10,N#Cc1cc(Cl)cc(Oc2c(Br)ccc(CC(=O)Nc3ccc(C(=O)NC4(CO)CC4)cc3Cl)c2F)c1,247.7 to 250.1
11,CC1(NC(=O)c2ccc(NC(=O)Cc3ccc(Br)c(Oc4cc(Cl)cc(C#N)c4)c3F)c(Cl)c2)CCS(=O)(=O)C1 (stereo not shown),95 to 105
12,N#Cc1cc(Cl)cc(Oc2c(Br)ccc(CC(=O)Nc3ccc(C(=O)NC4(CN)CC4)cc3Cl)c2F)c1.O=C(O)C(F)(F)F,148 to 152.4
13,Cc1cc(C(=O)NC(C)CN(C)C)ccc1NC(=O)Cc1ccc(Br)c(Oc2cc(Cl)cc(C#N)c2)c1F (stereo not shown),222 to 223.2
14,N#Cc1cc(Cl)cc(Oc2c(Br)ccc(CC(=O)Nc3ccc(C(=O)NC(=N)N)cc3Cl)c2F)c1,207 to 209
15,CC(C)(CN)NC(=O)c1ccc(NC(=O)Cc2ccc(Br)c(Oc3cc(Cl)cc(C#N)c3)c2F)c(Cl)c1.Cl,158 to 160.8
16,Cc1cc(C(=O)NCCN)ccc1NC(=O)Cc1ccc(Cl)c(Oc2cc(Cl)cc(C#N)c2)c1F,207.6 to 208.6
17,CN1CCC(C)(NC(=O)c2ccc(NC(=O)Cc3ccc(Br)c(Oc4cc(Cl)cc(C#N)c4)c3F)c(Cl)c2)CC1,96
18,CN(C)CCNC(=O)c1ccc(NC(=O)Cc2ccc(Cl)c(Oc3cc(Cl)cc(C#N)c3)c2F)c(Cl)c1,202.8 to 203.6
19,N#Cc1cc(Cl)cc(Oc2c(Br)ccc(CC(=O)Nc3ccc(C(=O)NCCN4CCCC4)cc3Cl)c2F)c1,197.7 to 198.3
20,Cc1cc(C(=O)NC2CCNC2)ccc1NC(=O)Cc1ccc(Br)c(Oc2cc(Cl)cc(C#N)c2)c1F (stereo not shown),117.8 to 120
21,Cc1cc(C(N)=O)ccc1NC(=O)Cc1ccc(Cl)c(Oc2cc(Cl)cc(C#N)c2)c1F,255.9 to 257.1
22,CC(CN(C)C)NC(=O)c1ccc(NC(=O)Cc2ccc(Br)c(Oc3cc(Cl)cc(C#N)c3)c2F)c(Cl)c1 (stereo not shown),190.1
23,Cc1cc(C(=O)NCCN2CCCC2)ccc1NC(=O)Cc1ccc(Br)c(Oc2cc(Cl)cc(C#N)c2)c1F,214.7 to 216.9
24,Cc1cc(C(=O)O)ccc1NC(=O)Cc1ccc(Br)c(Oc2cc(Cl)cc(C#N)c2)c1F,270 to 270.8
25,CC(CO)(CO)NC(=O)c1ccc(NC(=O)Cc2ccc(Br)c(Oc3cc(Cl)cc(C#N)c3)c2F)c(Cl)c1,69.1
26,Cc1cc(C(=O)O)ccc1NC(=O)Cc1ccc(Cl)c(Oc2cc(Cl)cc(C#N)c2)c1F,287.1 to 289.1
27,CC1CC[C@@H](C)N1CCNC(=O)c1ccc(NC(=O)Cc2ccc(Br)c(Oc3cc(Cl)cc(C#N)c3)c2F)c(Cl)c1 (stereo partly shown),179 to 181
28,N#Cc1cc(Oc2c(Br)ccc(CC(=O)Nc3ccc(C(=O)NCCN4CCCC4)cc3Cl)c2F)cc(C(F)F)c1,160 to 165.7
